Test results taken from ChEMBL document CHEMBL3297669, “Suvanine sesterterpenes and deacyl irciniasulfonic acids from a tropical Coscinoderma sp. sponge” (J Nat Prod, 2014).
In brackets after ≈: the same amount, converted by molar mass.

Assays:
K562 = assay: Cytotoxicity against human K562 cells; type: functional; details: read-out: LC50 (the source's name)
A549 = assay: Cytotoxicity against human A549 cells; type: functional; details: read-out: LC50 (the source's name)
Staphylococcus aureus = assay: Antimicrobial activity against Staphylococcus aureus ATCC 6538p after 24 hrs by two-fold broth dilution method; type: functional
Salmonella enterica = assay: Antimicrobial activity against Salmonella enterica ATCC 14028 after 24 hrs by two-fold broth dilution method; type: functional; details: ATCC 14028, 24 h
Pyricularia grisea = assay: Inhibition of Magnaporthe grisea Guy 11 isocitrate lyase
[1] = Inhibition of sortase A (unknown origin)
Bacillus spizizenii = assay: Antimicrobial activity against Bacillus subtilis ATCC 6633 after 24 hrs by two-fold broth dilution method; type: functional; details: ATCC 6633, 24 h
Kocuria rhizophila = assay: Antimicrobial activity against Kocuria rhizophila NBRC 12708 after 24 hrs by two-fold broth dilution method; type: functional; details: NBRC 12708, 24 h
Proteus hauseri = assay: Antimicrobial activity against Proteus hauseri NBRC 3851 after 24 hrs by two-fold broth dilution method; type: functional; details: NBRC 3851, 24 h
Escherichia coli = assay: Antimicrobial activity against Escherichia coli ATCC 35270 after 24 hrs by two-fold broth dilution method; type: functional; details: ATCC 35270, 24 h

| SMILES | CC50 (K562) [µg/mL] | CC50 (A549) [µg/mL] | MIC (Staphylococcus aureus) [µg/mL] | MIC (Salmonella enterica) [µg/mL] | MIC (Pyricularia grisea) [µg/mL] | IC50 [1] [µM] | MIC (Bacillus spizizenii) [µg/mL] | MIC (Kocuria rhizophila) [µg/mL] | MIC (Proteus hauseri) [µg/mL] | MIC (Escherichia coli) [µg/mL] |
| --- | --- | --- | --- | --- | --- | --- | --- | --- | --- | --- |
| C[S+]([O-])CCCN1CC=C(CC[C@H]2/C(=C/OS(=O)(=O)[O-])CC[C@H]3[C@]2(C)CC[C@H]2C(C)(C)CCC[C@]32C)C1=O.[Na+] (stereo not given in full) | 3.9 | 5.5 | > 100 | 50 | 24 | > 100 |  |  |  |  |
| CC(=O)CCCCC/C(C)=C\C(=O)NCCS(=O)(=O)O | > 100 | > 100 | > 100 | > 100 | > 100 | > 100 | > 100 | > 100 | > 100 | > 100 |
| O=C(O)CC[N+](=O)[O-] |  |  |  |  | 2.5 (≈ 21 µM) | > 100 |  |  |  |  |
| CC1(C)CCC[C@]2(C)[C@H]3CC/C(=C\OS(=O)(=O)[O-])[C@H](CCC4=CCN(CCS(=O)(=O)O)C4=O)[C@@]3(C)CC[C@@H]12.[Na+] | 4.6 | 2 | > 100 | > 100 | 90 | > 100 | > 100 | > 100 | > 100 | > 100 |
| CC1(C)CCC[C@]2(C)[C@H]3CC/C(=C\OS(=O)(=O)[O-])[C@H](CCC4=CC(=O)N(CCS(=O)(=O)O)C4)[C@@]3(C)CC[C@@H]12.[Na+] | 3.6 | 3.5 | > 100 | > 100 | 50 | > 100 | > 100 | > 100 | > 100 | > 100 |
| CC(C)[C@@H](C(=O)O)N1CC(CC[C@H]2/C(=C/OS(=O)(=O)[O-])CC[C@H]3[C@]2(C)CC[C@H]2C(C)(C)CCC[C@]32C)=CC1=O.[Na+] | 3.9 | 1.9 | > 100 | 100 | 64 | > 100 | > 100 | > 100 | > 100 | > 100 |
| COc1cccc2c1C(=O)c1c(O)c3c(c(O)c1C2=O)C[C@@](O)(C(=O)CO)C[C@@H]3O[C@H]1C[C@H](N)[C@H](O)[C@H](C)O1 [DOXORUBICIN] | 0.7 (≈ 1.29 µM) | 0.8 (≈ 1.47 µM) |  |  |  | > 100 |  |  |  |  |
| CC1(C)CCC[C@]2(C)[C@H]3CC/C(=C\OS(=O)(=O)[O-])[C@H](CCc4ccoc4)[C@@]3(C)CC[C@@H]12.C[N+](C)=C(N)N |  |  |  |  | 51 |  |  |  |  |  |
| C/C(=C/C(=O)NCCS(=O)(=O)[O-])CCCCC[C@H](C)O.[Na+] | > 100 | > 100 | > 100 | > 100 | > 100 | > 100 |  |  |  |  |
| C[C@H](C(=O)O)N1CC=C(CC[C@H]2/C(=C/OS(=O)(=O)[O-])CC[C@H]3[C@]2(C)CC[C@H]2C(C)(C)CCC[C@]32C)C1=O.[Na+] | 1.9 | 1.1 | > 100 | 50 | 48 | > 100 | > 100 | > 100 | > 100 | > 100 |
| C[C@@H]1O[C@@H](O[C@H]2C[C@@H](O)[C@]3(CO)[C@H]4[C@H](O)C[C@]5(C)[C@@H](C6=CC(=O)OC6)CC[C@]5(O)[C@@H]4CC[C@]3(O)C2)[C@H](O)[C@H](O)[C@H]1O [OUABAIN] |  |  |  |  |  | > 100 |  |  |  |  |
| CC1(C)S[C@@H]2[C@H](NC(=O)[C@H](N)c3ccccc3)C(=O)N2[C@H]1C(=O)O [AMPICILLIN] |  |  | 0.39 (≈ 1.12 µM) | 0.39 (≈ 1.12 µM) |  | > 100 | 0.39 (≈ 1.12 µM) | 0.39 (≈ 1.12 µM) | 0.78 (≈ 2.23 µM) | 3.12 (≈ 8.93 µM) |
| CC1(C)CCC[C@]2(C)[C@H]3CC/C(=C\OS(=O)(=O)[O-])[C@H](CCC4=CCN(CC(=O)O)C4=O)[C@@]3(C)CC[C@@H]12.[Na+] | 1.3 | 1.4 | > 100 | > 100 | 62 | > 100 | > 100 | > 100 | > 100 | > 100 |
| CC1(C)CCC[C@]2(C)[C@H]3CC/C(=C\OS(=O)(=O)[O-])[C@H](CCc4ccoc4)[C@@]3(C)CC[C@@H]12.CN(C)c1n(C)c(=O)c2c([n+]1C)N(C)CN2C [listing 1 of 2 here] |  |  |  |  | 28 |  |  |  |  |  |
| CC1(C)CCC[C@]2(C)[C@H]3CC/C(=C\OS(=O)(=O)[O-])[C@H](CCc4ccoc4)[C@@]3(C)CC[C@@H]12.C[N+](C)=C(N)N [SUVANINE] | 0.9 | 1.7 | > 100 | 25 |  | > 100 | 12.5 | > 100 | 100 | > 100 |
| CC1(C)CCC[C@]2(C)[C@H]3CC/C(=C\OS(=O)(=O)[O-])[C@H](CCc4ccoc4)[C@@]3(C)CC[C@@H]12.CN(C)c1n(C)c(=O)c2c([n+]1C)N(C)CN2C [listing 2 of 2 here] | 2.2 | 1.9 | 6.25 | 0.78 |  | > 100 | 0.78 | 6.25 | 6.25 | > 100 |
